{"source": "patent US20200230126A1", "about": "“TARGETED THERAPEUTICS” (TARVEDA THERAPEUTICS, INC., priority 2017, published 2020)", "type_in_all_cases": "physicochemical", "key": {"[1]": {"assay": "In-use stability study of dosing solutions in 5% Mannitol (mixing container, syringe pump, administration set)", "experimental": "In this study, SDC-TRAP-0063 sodium was dissolved in 5% Mannitol within the concentration range of 3-12 mg/mL. The stabilities of the SDC-TRAP-0063/Mannitol solution in an infusion container and during administration via a syringe pump were studied.\nDosing solutions of 3, 6 and 12 mg/mL of SDC-TRAP-0063 Na were prepared in 250 mL Intravia mixing containers. Pre-determined numbers of vials of SDC-TRAP-0063 Na were re-constituted with WFI and SDC-TRAP-0063 Na was transferred into mixing containers containing 5% mannitol. Each preparation was performed in duplicate.\nAn in-use test was performed to simulate the clinical infusion process. Freshly prepared dosing solutions were withdrawn from the Intravia containers with the specified syringe size and volume, plus an additional 2 mL for flushing the administration set. The volume of the IV administration set is O.7 mL; the 2 mL flush volume was selected according to standard pharmacy practice. After the administration set was flushed, the syringe was placed on a syringe pump and held at room temperature for 4 hours followed by a 2-hour infusion process. For the 15 mg dose level the simulation infusion was for 1 hour, because the minimal infusion rate specified by clinic was not less than 5 mL/hour. Samples were collected from the mixing containers at T0 and T2 hours and from the administration sets at T0 and from the bulk container at the end of infusion, at T5 hours for 15 mg sample and at T6 hours for all other samples, as outlined in Table 8.\nA flexible bracketing design, intended to cover possible syringe volumes from 10 to 60 mL of nominal volumes, possible variation of the syringe fill volumes from 10 to 75% of the nominal syringe volume and concentration ranges of the dosing solutions from 3 to 12 mg/ml was executed in this study. The maximum fill volume for each syringe is limited to 75% of the nominal volume."}, "[2]": {"assay": "Head-to-head in-use test, 0.9% Sodium Chloride dosing solution in IV bag and IV line with rocking", "design": "key to appearance: Conforms = clear and essentially free of visible particles", "conditions": "for appearance: 0.6 mg/mL in Sodium Chloride", "experimental": "A head-to-head in-use test of the SDC-TRAP-0063 Sodium 0.9% Sodium Chloride and 5% Mannitol dosing solutions was conducted. This study was intended to directly compare the two based on the specific clinical use direction for each diluent. In this study, the respective IV bags, syringes and IV lines were subjected to a rocking motion during the hold periods to mimic a worst case scenario for agitation of the dosing solution.\nThe 0.9% Sodium Chloride dosing solution was tested in an IV bag and IV line and at 0.6 mg/mL of SDC-TRAP-0063 Sodium as used in the clinic during the product complaint, with a designed 4 hour hold period followed by a 2-hour simulated infusion using a peristaltic pump (Table 5)."}, "[3]": {"assay": "pH of reconstituted solution and dosing solutions", "experimental": "The reconstituted solution of SDC-TRAP-0063 Sodium has a pH of about 10.0. This solution is diluted to the target dose in 5% Mannitol, USP. The pH of the infusion solution depends on the concentration of SDC-TRAP-0063 Sodium in the diluted infusion solution. Across the dose ranges employed in the clinical study protocol, the volume of the diluted infusion solution administered will range from 50 to 500 mL, and the pH will range from 8.1 to 9.6. In order to reduce the potential risks of injection site pain and/or damage to the venous endothelium during IV administration, a central venous access line is used for administration of the diluted SDC-TRAP-0063 Sodium.\nA new, more robust and patient-friendly formulation of dosing solution was developed. During this development, it was established that the pH of the dosing solution is driven by the concentration of SDC-TRAP-0063 Sodium and increasing the SDC-TRAP-0063 Sodium concentration allows better control of the solubility and pH of dosing solutions.\nIt is believed that a common ion effect is decreasing the solubility of SDC-TRAP-0063 Sodium in 0.9% Sodium Chloride solution."}, "[4]": {"assay": "Solubility at various pH in 0.9% Sodium Chloride (HCl addition, about 24 hours equilibration, 0.2 μm filtration)", "design": "key to appearance: Conforms = clear and essentially free of visible particles", "conditions": "0.9% Saline", "experimental": "(§1) Experiments were performed to assess the solubility of SDC-TRAP-0063 Sodium as a function of varying pH."}, "[5]": {"assay": "Solubility at various pH in 5% Mannitol (HCl addition, about 24 hours equilibration, 0.2 μm filtration)", "design": "key to appearance: Conforms = clear and essentially free of visible particles", "experimental": "as §1"}, "Solubility in water": {"assay": "Solubility in water", "from_the_text": "As discussed above, the solubility of SDC-TRAP-0063 Sodium is driven primarily by pH. […] Reducing the pH allows the equilibrium to shift more to the lactone form and adversely impacts solubility. Dilute solutions of SDC-TRAP-0063 Sodium result in a lower pH with an increased risk of precipitation. The solubility of SDC-TRAP-0063 Sodium has also been seen to be adversely impacted by the use of 0.9% Sodium Chloride as a diluent. A common ion effect is the likely source of this observation."}, "[6]": {"conditions": "0 molar percent HCl added, pH 9.9"}, "[7]": {"conditions": "8.1 molar percent HCl added, pH 9.6"}, "[8]": {"conditions": "14.4 molar percent HCl added, pH 9.1"}, "[9]": {"conditions": "33.1 molar percent HCl added, pH 8.7"}, "[10]": {"conditions": "35.5 molar percent HCl added, pH 8.7"}}, "data": [{"smiles": "CCc1c2c(nc3ccc(OC(=O)N4CCC(CCn5ccc6cc(-n7c(O)nnc7-c7cc(C(C)C)c(O)cc7O)ccc65)CC4)cc13)-c1cc([C@@](O)(CC)C(=O)[O-])c(CO)c(=O)n1C2.[Na+]", "note": "[SDC-TRAP-0063 Sodium, Sodium (S)-2-(2-((4-(2-(5-(3-(2,4-dihydroxy-5-isopropylphenyl)-5-hydroxy-4H-1,2,4-triazol-4-yl)-1H-indol-1-yl)ethyl)piperidine-1-carbonyl)oxy)-12-ethyl-8-(hydroxymethyl)-9-oxo-9,11-dihydroindolizino[1,2-b]quinolin-7-yl)-2-hydroxybutanoate]", "values": [{"measurement": "total impurities", "setting": "[1]; 2-hour storage in mixing containers and total of 6 hours simulated hold and infusion (5 hours for 15 mg dose)", "result": "within the acceptable ranges"}, {"measurement": "HPLC assay values", "setting": "[1]; 3, 6 and 12 mg/mL, samples collected during the study", "result": "did not show any trends and were within expected ranges"}, {"measurement": "appearance of test samples", "setting": "[1]; 3, 6 and 12 mg/mL, up to 6 hours", "result": "clear solutions essentially free of particles"}, {"measurement": "in-use stability profile", "setting": "[1]; concentration range of 3-12 mg/mL", "result": "acceptable stability profile"}, {"measurement": "termination of the simulated infusion after onset due to occlusion of the in-line filter", "setting": "[2]; 0.6 mg/mL in 0.9% Sodium Chloride, 2-hour simulated infusion, peristaltic pump", "result": "≤ 1", "unit": "h"}, {"measurement": "precipitation during the hold period", "setting": "[2]; 0.6 mg/mL in 0.9% Sodium Chloride, 4 hour hold period, rocking", "result": "Precipitation was observed in both the IV bag and IV line"}, {"measurement": "appearance", "setting": "[2]; Bulk solution, at termination, collected after in line filter", "result": "Conforms^1"}, {"measurement": "appearance", "setting": "[2]; Drip Chamber of the IV Administration set, less than 1 hour (infusion terminated)", "result": "Hazy with fine floating"}, {"measurement": "appearance", "setting": "[2]; IV Administration set, 0 hours, collected after in line filter", "result": "Conforms^1"}, {"measurement": "appearance", "setting": "[2]; IV bag, 0 hours", "result": "Conforms^1"}, {"measurement": "appearance", "setting": "[2]; IV bag, 2 hours", "result": "Slightly hazy solution"}, {"measurement": "appearance", "setting": "[2]; IV bag, 4 hours, collected after in line filter", "result": "Conforms^1"}, {"measurement": "pH observed for dosing solutions", "setting": "[3]; 0.9% Sodium chloride", "result": "8.6-8.7"}, {"measurement": "pH range observed for dosing solutions", "setting": "[3]; 5% Mannitol", "result": "9.4-10.2"}, {"measurement": "observed pH for all dosing solutions", "setting": "[3]; 5% Mannitol, concentrations from 3-12 mg/mL", "result": "≥ 9.4"}, {"measurement": "SDC-TRAP-0063 Sodium concentration in the solution", "setting": "[4]; [6]", "result": 22.9, "unit": "mg/mL"}, {"measurement": "appearance", "setting": "[4]; [6]", "result": "Conforms^1"}, {"measurement": "SDC-TRAP-0063 Sodium concentration in the solution", "setting": "[4]; [7]", "result": 23.4, "unit": "mg/mL"}, {"measurement": "appearance", "setting": "[4]; [7]", "result": "Slightly hazy solution"}, {"measurement": "SDC-TRAP-0063 Sodium concentration in the solution", "setting": "[4]; [8]", "result": 21.4, "unit": "mg/mL"}, {"measurement": "appearance", "setting": "[4]; [8]", "result": "Slightly hazy solution"}, {"measurement": "SDC-TRAP-0063 Sodium concentration in the solution", "setting": "[4]; [9]", "result": 18.6, "unit": "mg/mL"}, {"measurement": "appearance", "setting": "[4]; [9]", "result": "Slightly hazy solution"}, {"measurement": "appearance", "setting": "[4]; 33.1 molar percent HCl added, pH 8.7, after 1 hour", "result": "gelation after 1 hour"}, {"measurement": "SDC-TRAP-0063 Sodium concentration in the solution", "setting": "[4]; [10]", "result": 13.7, "unit": "mg/mL"}, {"measurement": "appearance", "setting": "[4]; [10]", "result": "Slightly hazy solution"}, {"measurement": "appearance", "setting": "[4]; 35.5 molar percent HCl added, pH 8.7, after 1 hour", "result": "gelation after 1 hour"}, {"measurement": "appearance", "setting": "[5]; 0 molar percent HCl added, pH 10.1", "result": "Conforms^2"}, {"measurement": "SDC-TRAP-0063 Sodium concentration in the solution", "setting": "[5]; 0 molar percent HCl added, pH 10.1, after 24 hours of rocking, starting 23.6 mg/mL", "result": ">23.6 (after mg/mL"}, {"measurement": "SDC-TRAP-0063 Sodium concentration in the solution", "setting": "[5]; 10.5 molar percent HCl added, pH 9.9", "result": ">23.5", "unit": "mg/mL"}, {"measurement": "SDC-TRAP-0063 Sodium concentration in the solution", "setting": "[5]; 18.2 molar percent HCl added, pH 9.9", "result": ">23.3", "unit": "mg/mL"}, {"measurement": "SDC-TRAP-0063 Sodium concentration in the solution", "setting": "[5]; 33.1 molar percent HCl added, pH 9.1", "result": 20.2, "unit": "mg/mL"}, {"measurement": "SDC-TRAP-0063 Sodium concentration in the solution", "setting": "[5]; 35.5 molar percent HCl added, pH 9.4", "result": 20.9, "unit": "mg/mL"}, {"measurement": "precipitation", "setting": "[5]; maximum concentration of 12 mg/mL", "result": "does not result in precipitation"}, {"measurement": "solubility", "setting": "Solubility in water", "result": "> 52.5", "unit": "mg/mL"}]}]}
